Measured values published in patent US4861788A, “Antibacterial 1-normon-2-yl-heterocyclic compounds” (Beecham Group plc, priority 1983, dated 1989).
Values after ≈ are worked out from the molar mass of the structure shown. Like-named read-outs stand apart in the source and are kept apart here.

What was measured:
M. bovis NCTC 10131 = assay: microbe, parasite or virus in culture; assay type: cell-based; conditions: NCTC10131, 144 h
[1] = system: Staph. aureus B4 (pen. resistant); assay: MIC against veterinary bacteria in vitro (Diagnostic Sensitivity Test Agar); conditions: Staphylococcus aureus, 18 h
Experimental: (§1) The activity of the normonyl derivatives of the Examples against various veterinarily important bacteria, was assayed in vitro using two-fold serial dilutions in Diagnostic Sensitivity Test Agar inoculated with 10^4 organisms.

M. hyopneumoniae TAM 6N = assay: MIC against Mycoplasma in vitro (Friis broth with agarose); assay type: cell-based; conditions: Mesomycoplasma hyopneumoniae, TAM6N, 144 h
M. pneumoniae ATCC 15492 = assay: as above; assay type: cell-based; conditions: Mycoplasmoides pneumoniae, ATCC15492, 144 h
[2] = system: Strep. suis (group D) SPS11; assay: MIC against veterinary bacteria in vitro (Diagnostic Sensitivity Test Agar); conditions: Streptococcus suis, 18 h
Experimental: as §1

[3] = system: M. hyopneumoniae NCTC 101101; assay: MIC against Mycoplasma in vitro (Friis broth with agarose); assay type: cell-based; conditions: Mesomycoplasma hyopneumoniae, NCTC101101, 144 h
S. typhimurium S18 = assay: MIC against veterinary bacteria in vitro (Diagnostic Sensitivity Test Agar); conditions: Salmonella enterica, 18 h
Experimental: as §1

E. coli E1 = assay: as above; conditions: Escherichia coli, E1, 18 h
Experimental: as §1

E. coli NCTC 10418 = assay: as above; conditions: Escherichia coli, NCTC10418, 18 h
Experimental: as §1

M. hyopneumoniae Str. 11 = assay: MIC against Mycoplasma in vitro (Friis broth with agarose); assay type: cell-based; conditions: Mesomycoplasma hyopneumoniae
[4] = system: Staph. aureus 152 (pen. sens); assay: MIC against veterinary bacteria in vitro (Diagnostic Sensitivity Test Agar); conditions: Staphylococcus aureus, 18 h
Experimental: as §1

[5] = system: Corynebacterium pyogenes CY1; assay: as above; conditions: CY1, 18 h
Experimental: as §1

Strep. dysgalactiae SPD1 = assay: as above; conditions: Streptococcus dysgalactiae, SPD1, 18 h
Experimental: as §1

M. hyopneumoniae UCD 1 = assay: MIC against Mycoplasma in vitro (Friis broth with agarose); assay type: cell-based; conditions: Mesomycoplasma hyopneumoniae, UCD1, 144 h
M. hyopneumoniae JF 435 = assay: as above; assay type: cell-based; conditions: Mesomycoplasma hyopneumoniae, JF435, 144 h
Past. multocida PA2 = assay: MIC against veterinary bacteria in vitro (Diagnostic Sensitivity Test Agar); conditions: Pasteurella multocida, PA2, 18 h
Experimental: as §1

M. hyorhinis ATCC 25021 = assay: MIC against Mycoplasma in vitro (Friis broth with agarose); assay type: cell-based; conditions: Mesomycoplasma hyorhinis, ATCC25021, 144 h
Strep. uberis SPU1 = assay: MIC against veterinary bacteria in vitro (Diagnostic Sensitivity Test Agar); conditions: Streptococcus uberis, SPU1, 18 h
Experimental: as §1

[6] = system: M. hyopneumoniae ATCC 25095; assay: MIC against Mycoplasma in vitro (Friis broth with agarose); assay type: cell-based; conditions: Mesomycoplasma hyopneumoniae, ATCC25095, 144 h
Past. multocida PA1 = assay: MIC against veterinary bacteria in vitro (Diagnostic Sensitivity Test Agar); conditions: Pasteurella multocida, PA1, 18 h
Experimental: as §1

Bord. bronchiseptica B08 = assay: as above; conditions: Bordetella bronchiseptica, B08, 18 h
Experimental: as §1

Bord. bronchiseptica B09 = assay: as above; conditions: Bordetella bronchiseptica, B09, 18 h
Experimental: as §1

M. hyopneumoniae MS 16 = assay: MIC against Mycoplasma in vitro (Friis broth with agarose); assay type: cell-based; conditions: Mesomycoplasma hyopneumoniae, MS16, 144 h
M. gallisepticum S6 = assay: as above; assay type: cell-based; conditions: Mycoplasmoides gallisepticum
[7] = system: Erysipelothrix rhusiopathiae NCTC 8163; assay: MIC against veterinary bacteria in vitro (Diagnostic Sensitivity Test Agar); conditions: NCTC8163, 18 h
Experimental: as §1

[8] = system: M. hyosynoviae ATCC 25591; assay: MIC against Mycoplasma in vitro (Friis broth with agarose); assay type: cell-based; conditions: 144 h
Strep. agalactiae SPA1 = assay: MIC against veterinary bacteria in vitro (Diagnostic Sensitivity Test Agar); conditions: Streptococcus agalactiae, SPA1, 18 h
Experimental: as §1

M. dispar NCTC 10125 = assay: MIC against Mycoplasma in vitro (Friis broth with agarose); assay type: cell-based; conditions: 144 h
[9] = system: M. hyopneumoniae J2206/183^b; assay: as above; assay type: cell-based; conditions: Mesomycoplasma hyopneumoniae, 144 h
[10] = system: M. bovigenitalium ATCC 14173; assay: as above; assay type: cell-based; conditions: 144 h
[11] = M. hyopneumoniae TAM 6N, 6 days at 37° C, read-out: MIC
[12] = M. pneumoniae ATCC 15492, 6 days at 37° C, read-out: MIC
[13] = M. hyopneumoniae NCTC 101101, 6 days at 37° C, read-out: MIC
[14] = 144 h, M. hyopneumoniae Str. 11, 6 days at 37° C, read-out: MIC
[15] = M. hyopneumoniae JF 435, 6 days at 37° C, read-out: MIC
[16] = M. hyorhinis ATCC 25021, 6 days at 37° C, read-out: MIC
[17] = M. hyopneumoniae ATCC 25095, 6 days at 37° C, read-out: MIC
[18] = M. hyopneumoniae MS 16, 6 days at 37° C, read-out: MIC
[19] = 144 h, M. gallisepticum S6, 6 days at 37° C, read-out: MIC
[20] = M. hyosynoviae ATCC 25591, 6 days at 37° C, read-out: MIC
[21] = M. dispar NCTC 10125, 6 days at 37° C, read-out: MIC
[22] = M. hyopneumoniae J2206/183^b, 6 days at 37° C, read-out: MIC
[23] = M. bovigenitalium ATCC 14173, 6 days at 37° C, read-out: MIC
[24] = M. hyopneumoniae UCD 1, 6 days at 37° C, read-out: MIC

Row | Structure (SMILES) | MIC (M. bovis NCTC 10131) [µg/mL] | MIC [1] [µg/mL] | MIC (M. hyopneumoniae TAM 6N; [11]) [µg/mL] | MIC (M. pneumoniae ATCC 15492; [12]) [µg/mL] | MIC [2] [µg/mL] | MIC (S. typhimurium S18) [µg/mL] | MIC (E. coli E1) [µg/mL] | MIC (E. coli NCTC 10418) [µg/mL] | MIC [4] [µg/mL] | MIC [5] [µg/mL] | MIC (Strep. dysgalactiae SPD1) [µg/mL] | MIC (M. hyopneumoniae JF 435; [15]) [µg/mL] | MIC (Past. multocida PA2) [µg/mL] | MIC (M. hyorhinis ATCC 25021; [16]) [µg/mL] | MIC (Strep. uberis SPU1) [µg/mL] | MIC (Past. multocida PA1) [µg/mL] | MIC (Bord. bronchiseptica B08) [µg/mL] | MIC (Bord. bronchiseptica B09) [µg/mL] | MIC [7] [µg/mL] | MIC (Strep. agalactiae SPA1) [µg/mL] | other results
1 | CC(=Cc1nnc(-c2cccnc2)o1)CC1OCC(CC2OC2C(C)C(C)O)C(O)C1O (stereo not drawn) [Example 5, 2-(1-Normon-2-yl)-5-(3-pyridyl)-1,3,4-oxadiazole A] | 0.025 (≈ 0.0561 µM) | 10 (≈ 22.4 µM) | 2.5 (≈ 5.61 µM) | > 10 | > 80 | > 80 | > 80 | > 80 | 10 (≈ 22.4 µM) | > 80 | 10 (≈ 22.4 µM) | 2.5 (≈ 5.61 µM) | 1.25 (≈ 2.81 µM) | 1 (≈ 2.24 µM) | 2.5 (≈ 5.61 µM) | 1.25 (≈ 2.81 µM) | > 80 | 20 (≈ 44.9 µM) | 80 (≈ 180 µM) | 20 (≈ 44.9 µM) | MIC [3, 13]: 2.5 µg/mL (≈ 5.61 µM); MIC (M. hyopneumoniae Str. 11; [14]): 1 µg/mL (≈ 2.24 µM); MIC (M. hyopneumoniae UCD 1): 2.5 µg/mL (≈ 5.61 µM); MIC [6, 17]: 1 µg/mL (≈ 2.24 µM); MIC (M. hyopneumoniae MS 16; [18]): 1 µg/mL (≈ 2.24 µM); MIC (M. gallisepticum S6; [19]): > 10 µg/mL; MIC [8, 20]: 1 µg/mL (≈ 2.24 µM); MIC (M. dispar NCTC 10125; [21]): 0.5 µg/mL (≈ 1.12 µM); MIC [9, 22]: 2.5 µg/mL (≈ 5.61 µM); MIC [10, 23]: 0.25 µg/mL (≈ 0.561 µM)
2 | CC(=CC(=O)NN)CC1OCC(CC2OC2C(C)C(C)O)C(O)C1O (stereo not drawn) [Example 9, Monohydrazide A] | 0.5 (≈ 1.39 µM) | 80 (≈ 223 µM) | – | – | > 80 | > 80 | > 80 | > 80 | 80 (≈ 223 µM) | > 80 | > 80 | – | 80 (≈ 223 µM) | – | 80 (≈ 223 µM) | 40 (≈ 112 µM) | > 80 | > 80 | > 80 | > 80 | MIC (M. hyopneumoniae TAM 6N): 10 µg/mL (≈ 27.9 µM); MIC (M. pneumoniae ATCC 15492): > 10 µg/mL; MIC [3]: 10 µg/mL (≈ 27.9 µM); MIC (M. hyopneumoniae Str. 11; STR.11, 144 h): 5 µg/mL (≈ 13.9 µM); MIC (M. hyopneumoniae UCD 1): 10 µg/mL (≈ 27.9 µM); MIC (M. hyopneumoniae JF 435): 10 µg/mL (≈ 27.9 µM); MIC (M. hyorhinis ATCC 25021): 10 µg/mL (≈ 27.9 µM); MIC [6]: 5 µg/mL (≈ 13.9 µM); MIC (M. hyopneumoniae MS 16): 5 µg/mL (≈ 13.9 µM); MIC (M. gallisepticum S6; S6, 144 h): > 10 µg/mL; MIC [8]: 10 µg/mL (≈ 27.9 µM); MIC (M. dispar NCTC 10125): 2.5 µg/mL (≈ 6.97 µM); MIC [9]: 10 µg/mL (≈ 27.9 µM); MIC [10]: 0.5 µg/mL (≈ 1.39 µM)
3 | CC(=Cc1nnc(-c2cccc(C#N)c2)o1)CC1OCC(CC2OC2C(C)C(C)O)C(O)C1O (stereo not drawn) [Example 11, 2-(m-Cyanophenyl)-5-(1-normon-2-yl)-1,3,4-oxadiazole A] | 0.05 (≈ 0.106 µM) | 20 (≈ 42.6 µM) | 0.25 (≈ 0.532 µM) | > 10 | > 80 | > 80 | > 80 | > 80 | 20 (≈ 42.6 µM) | > 80 | 2.5 (≈ 5.32 µM) | 0.25 (≈ 0.532 µM) | 0.312 (≈ 0.664 µM) | 0.1 (≈ 0.213 µM) | 2.5 (≈ 5.32 µM) | 2.5 (≈ 5.32 µM) | > 80 | 40 (≈ 85.2 µM) | 40 (≈ 85.2 µM) | 5 (≈ 10.6 µM) | MIC [3]: 0.25 µg/mL (≈ 0.532 µM); MIC (M. hyopneumoniae Str. 11; STR.11, 144 h): 0.25 µg/mL (≈ 0.532 µM); MIC (M. hyopneumoniae UCD 1): 0.25 µg/mL (≈ 0.532 µM); MIC [6, 17]: 0.25 µg/mL (≈ 0.532 µM); MIC (M. hyopneumoniae MS 16; [18]): 0.1 µg/mL (≈ 0.213 µM); MIC (M. gallisepticum S6; [19]): > 10 µg/mL; MIC [8, 20]: 0.5 µg/mL (≈ 1.06 µM); MIC (M. dispar NCTC 10125): 0.05 µg/mL (≈ 0.106 µM); MIC [9, 22]: 0.25 µg/mL (≈ 0.532 µM); MIC [10, 23]: 0.1 µg/mL (≈ 0.213 µM)
4 | COC(=O)CCCCCCCCn1nnnc1C=C(C)CC1OCC(CC2OC2C(C)C(C)O)C(O)C1O (stereo not drawn) [Example 13, 1-(8-Methoxycarbonyloctyl)-5-(1-normon-2-yl)-1H-tetrazole A] | 1 (≈ 1.86 µM) | > 80 | > 10 | > 10 | > 80 | > 80 | > 80 | > 80 | 20 (≈ 37.1 µM) | > 80 | > 80 | > 10 | 5 (≈ 9.28 µM) | > 10 | 40 (≈ 74.3 µM) | 40 (≈ 74.3 µM) | > 80 | 80 (≈ 149 µM) | > 80 | > 80 | MIC [3, 13]: > 10 µg/mL; MIC (M. hyopneumoniae Str. 11; [14]): > 10 µg/mL; MIC (M. hyopneumoniae UCD 1; [24]): > 10 µg/mL; MIC [6, 17]: > 10 µg/mL; MIC (M. hyopneumoniae MS 16; [18]): > 10 µg/mL; MIC (M. gallisepticum S6; [19]): > 10 µg/mL; MIC [8, 20]: > 10 µg/mL; MIC (M. dispar NCTC 10125; [21]): > 10 µg/mL; MIC [9, 22]: > 10 µg/mL; MIC [10, 23]: 5 µg/mL (≈ 9.28 µM)
5 | CC(=Cc1nnnn1CCCCCCCCC(=O)O)CC1OCC(CC2OC2C(C)C(C)O)C(O)C1O (stereo not drawn) [Example 14, Sodium 1-(8-carboxylatooctyl)-5-(1-normon-2-yl)-1H-tetrazole A] | 5 | > 80 | > 10 | > 10 | > 80 | > 80 | > 80 | > 80 | > 80 | > 80 | > 80 | > 10 | 1.25 | > 10 | > 80 | 80 | > 80 | > 80 | > 80 | > 80 | MIC [3, 13]: > 10 µg/mL; MIC (M. hyopneumoniae Str. 11; [14]): > 10 µg/mL; MIC (M. hyopneumoniae UCD 1; [24]): > 10 µg/mL; MIC [6, 17]: > 10 µg/mL; MIC (M. hyopneumoniae MS 16; [18]): > 10 µg/mL; MIC (M. gallisepticum S6; [19]): > 10 µg/mL; MIC [8, 20]: > 10 µg/mL; MIC (M. dispar NCTC 10125; [21]): 10 µg/mL; MIC [9, 22]: > 10 µg/mL; MIC [10, 23]: 10 µg/mL
